From patent publication US20060040997A1, “Benzthiazole-3 oxides useful for the treatment of proliferative disorders” (priority 2003, published 2006)
Like-named read-outs stand apart in the source and are kept apart here.

Experiments:
HELA = experiment: 72-h MTT cellular proliferation assay, HELA; type: cell-based; settings: Homo sapiens, read-out: Anti-proliferative activity on tumour cell lines (MTT assay) HELA IC50
Experimental: (§1) Cellular proliferation assays using human tumour cell lines (obtained from the American Type Culture Collection, 10801 University Boulevard, Manessas, Va. 20110-2209, USA) were carried out. Standard 72-h MTT (thiazolyl blue; 3-[4,5-dimethylthiazol-2-yl]-2,5-diphenyltetrazolium bromide) assays were performed (Loveland et al, Biochem. Int., 1992, 27, 501; Haselsberger et al, Anti Cancer Drugs, 1996, 7, 331). In short: cells were seeded into 96-well plates according to doubling time and incubated overnight at 37° C. Test compounds were made up in DMSO and a ⅓ dilution series prepared in 100 μL cell media, added to cells (in triplicates) and incubated for 72 h at 37° C. MTT was made up as a stock of 5 mg/mL in cell media and filter-sterilised. Media was removed from cells followed by a wash with 200 μL PBS. MTT solution was then added at 20 μL per well and incubated in the dark at 37° C. for 4 h. MTT solution was removed and cells again washed with 200 μL PBS. MTT dye was solubilised with 200 μL per well of DMSO with agitation.

human PLK1 = molecular target: T1, human PLK1 (Homo sapiens, UniProt P53350); experiment: PLK1 protein kinase assay (CDC25C phosphorylation, [γ-32P]-ATP); type: biochemical; settings: read-out: PLK1 kinase inhibition IC50
T1 construct: A full-length human PLK1 (XM—047240) (amino acids 1-603) clone; His6 (N); made in house; host or cells: Sf9 insect cells (baculovirus) for PLK1; E. coli BL21(DE3) RIL for CDC25C
T1 sequence (P53350 whole entry, the tested form may be a part): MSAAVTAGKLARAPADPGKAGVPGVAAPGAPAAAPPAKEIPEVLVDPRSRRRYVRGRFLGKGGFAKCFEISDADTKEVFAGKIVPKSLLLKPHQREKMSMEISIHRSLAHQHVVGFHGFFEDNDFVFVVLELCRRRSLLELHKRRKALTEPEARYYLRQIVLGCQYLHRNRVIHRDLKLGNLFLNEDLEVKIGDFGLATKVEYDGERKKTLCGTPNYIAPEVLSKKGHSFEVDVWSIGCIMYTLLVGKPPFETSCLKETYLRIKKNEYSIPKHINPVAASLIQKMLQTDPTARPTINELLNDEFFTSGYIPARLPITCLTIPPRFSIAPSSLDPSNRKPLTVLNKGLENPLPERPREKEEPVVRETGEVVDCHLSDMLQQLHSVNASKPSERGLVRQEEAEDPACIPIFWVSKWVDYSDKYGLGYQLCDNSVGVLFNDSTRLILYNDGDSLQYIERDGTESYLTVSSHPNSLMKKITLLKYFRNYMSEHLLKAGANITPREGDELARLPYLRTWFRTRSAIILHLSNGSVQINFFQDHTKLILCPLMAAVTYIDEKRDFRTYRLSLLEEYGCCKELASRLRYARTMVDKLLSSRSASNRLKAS
Excerpt: A full-length human CDC25C clone was isolated by PCR from HeLa mRNA and was inserted on a BamHI-HindIII fragment into pRsetA. The amino terminal fragment of CDC25C (encoding residues 1-300) was excised from this vector and inserted into pET28a (between the NcoI and BamHI sites). Expression was under the control of the T7 promoter, and the encoded protein contained a His6 tag at the carboxyl terminus. The vector was transformed into E. coli strain BRL(DE3) pLysS for expression experiments. CDC25C was expressed in BL21(DE3) RIL bacteria cells, grown in LB media at 37° C. until OD600nm of 0.6 was reached. The expression was induced with 1 mM IPTG and the bacterial culture was grown further for 3 h. The bacteria were harvested by centrifugation and the cell pellet was re-suspended in 50 mM Tris pH 7.5 and 10% sucrose, flash frozen, and stored at −70° C. until used. CDC25C protein was purified from E. coli inclusion bodies. The inclusion bodies were isolated in a buffer (50 mM Tris pH 8.0, 2 mM EDTA, 100 mM NaCl, 0.5% triton X-100). After denaturation in the presence of 6 M urea, the protein was refolded via slow dialysis of the urea. The protein was stored in 25 mM Tris pH 8.0, 100 mM NaCl, 1 mM DTT, 1 mM EDTA and 10% glycerol at −70° C. until used.
A full-length human PLK1 (XM—047240) (amino acids 1-603) clone was amplified from a foetal lung cDNA library using primers incorporating restriction enzyme sites. […] The 3′ primer ([…]) incorporated a stop codon prior to the EcoR1 site. The PCR product was cloned into the Nhe1/EcoR1 sites of a baculovirus expression vector, pSSP 1. […] Cells were only used for expression in logarithmic growth phase. […] The flasks were incubated at 27° C., with shaking at 100 r.p.m. for 48 h. On harvest, cell density and viability was determined, the cultures spun down at 2500 r.p.m. for 5 min and washed with ice-cold phosphate-buffered saline. The wash was re-spun at the same speed and the pellet was snap frozen. PLK1 protein was purified on a metal affinity column.
PLK1 protein kinase assays were carried out using a 96-well plate format by incubating CDC25C (2 μg/well) with PLK1 (1 μg/well) in 20 mM Tris/HCl buffer pH 7.5, supplemented with 25 mM β-glycerophosphate, 5 mM EGTA, 1 mM DTT and 1 mM NaVO3. Serial dilutions of test compound in assay buffer were added. […] The reaction mixture was incubated at 30° C. for 1 h, then stopped with 75 mM aq orthophosphoric acid, transferred onto a 96-well P81 filter plate (Whatman), dried, and the extent of CDC25C phosphorylation was assessed by scintillation counting using a Packard TopCount plate reader. The raw assay data was analysed by non-linear regression analysis parameters and IC50 values were determined using the equation: y=A+((B−A)/(1+((C/x)ˆD))), where y is % inhibition, A is minimum inhibition, B is maximum inhibition, C is EC50, and D is the slope factor.

A549 = experiment: 72-h MTT cellular proliferation assay, A549; type: cell-based; settings: Homo sapiens, A549, 72 h; read-out: Anti-proliferative activity on tumour cell lines (MTT assay) A549 IC50
Experimental: as §1

U2OS = experiment: 72-h MTT cellular proliferation assay, U2OS; type: cell-based; settings: Homo sapiens, read-out: Anti-proliferative activity on tumour cell lines (MTT assay) U2OS IC50
Experimental: as §1

MCF-7 = experiment: 72-h MTT cellular proliferation assay, MCF-7; type: cell-based; settings: Homo sapiens, MCF7; MCF-7, 72 h; read-out: Anti-proliferative activity on tumour cell lines (MTT assay) MCF-7 IC50
Experimental: as §1

IC50 (HELA) [µM]	IC50 (human PLK1; 100 μM ATP) [µM]	IC50 (A549) [µM]	IC50 (U2OS) [µM]	IC50 (MCF-7) [µM]	melting point [°C]	IC50 (human PLK1; kinase assay at 10 μM ATP) [µM]	Compound
21 ± 4	50 to 100	13.3 ± 0.6	29.4 ± 1.2	9 ± 1	230 to 231		O=C(NO)c1sc2c([N+](=O)[O-])cc(C(F)(F)F)cc2[n+]1[O-] [Compound 1e, 7-Nitro-3-oxy-5-trifluoromethyl-benzothiazole-2-carboxylic acid hydroxyamide]
16 ± 10	> 100	21 ± 3	35 ± 3	19 ± 16	229 to 230		NNC(=O)c1sc2c([N+](=O)[O-])cc(C(F)(F)F)cc2[n+]1[O-] [Compound 1c, 7-Nitro-3-oxy-5-trifluoromethyl-benzothiazole-2-carboxylic acid hydrazide]
56 ± 2	39	48 ± 5	88 ± 10	35 ± 2			O=[N+]([O-])c1cc(C(F)(F)F)cc2c1sc(O)[n+]2[O-] [Compound 1i, 7-Nitro-3-oxy-5-trifluoromethyl-benzothiazol-2-ol]
14 ± 5	67 ± 7	7.7 ± 2.9	7.2 ± 3.6	6.1 ± 1.1	224 to 225		O=C(NO)c1sc2c([N+](=O)[O-])cc(F)cc2[n+]1[O-] [Compound 1g, 5-Fluoro-7-nitro-3-oxy-benzothiazole-2-carboxylic acid hydroxyamide]
16 ± 8		24 ± 3	47 ± 7	12.6 ± 6.3			NC(=O)c1sc2c([N+](=O)[O-])cc(C(F)(F)F)cc2[n+]1[O-] [Compound 1a, 7-Nitro-3-oxy-5-trifluoromethyl-benzothiazole-2-carboxylic acid amide]

More lines, now with the values behind:

Compound	IC50 (HELA) [µM]	IC50 (human PLK1; 100 μM ATP) [µM]	IC50 (A549) [µM]	IC50 (U2OS) [µM]	IC50 (MCF-7) [µM]	melting point [°C]	IC50 (human PLK1; kinase assay at 10 μM ATP) [µM]
O=C(c1sc2c([N+](=O)[O-])cc(C(F)(F)F)cc2[n+]1[O-])N1CCCC1 [Compound 1b, (7-Nitro-3-oxy-5-trifluoromethyl-benzothiazol-2-yl)-pyrrolidin-1-yl-methanone]	12	56 ± 19	5.2	16			
N#Cc1sc2c([N+](=O)[O-])cc(C(F)(F)F)cc2[n+]1[O-] [Compound 1h, 7-Nitro-3-oxy-5-trifluoromethyl-benzothiazole-2-carbonitrile]	10.2 ± 3.3	21	10 ± 0.08	9.5 ± 1.7	2.1 ± 1.5		
NC(=O)c1sc2c([N+](=O)[O-])cc(SC(F)(F)F)cc2[n+]1[O-] [Compound 1j, 7-Nitro-3-oxy-5-trifluoromethylsulfanyl-benzothiazole-2-carboxylic acid amide]	6 ± 0.8		4 ± 1.8	8.2 ± 0.3	2.5 ± 1	255 to 256	
NC(=O)c1sc2c([N+](=O)[O-])cc(F)cc2[n+]1[O-] [Compound 1f, 5-Fluoro-7-nitro-3-oxy-benzothiazole-2-carboxylic acid amide]	10.2 ± 2.4		3.9 ± 0.2	11.5 ± 2	1.6 ± 0.2		50 to 100
N#Cc1cc([N+](=O)[O-])c2sc(C(N)=O)[n+]([O-])c2c1 [Compound 1d, 5-Cyano-7-nitro-3-oxy-benzothiazole-2-carboxylic acid amide]	6.6 ± 0.8	10 ± 7	4.2 ± 1.5	6.7 ± 1.2	2 ± 2		
